The text below walks through data of US10065972B2, “Bicyclic or tricyclic heterocyclic compound” (MITSUBISHI TANABE PHARMA CORPORATION, priority 2014, dated 2018).

Chain of human recombinant KAT-II (Q8N5Z0 30-425): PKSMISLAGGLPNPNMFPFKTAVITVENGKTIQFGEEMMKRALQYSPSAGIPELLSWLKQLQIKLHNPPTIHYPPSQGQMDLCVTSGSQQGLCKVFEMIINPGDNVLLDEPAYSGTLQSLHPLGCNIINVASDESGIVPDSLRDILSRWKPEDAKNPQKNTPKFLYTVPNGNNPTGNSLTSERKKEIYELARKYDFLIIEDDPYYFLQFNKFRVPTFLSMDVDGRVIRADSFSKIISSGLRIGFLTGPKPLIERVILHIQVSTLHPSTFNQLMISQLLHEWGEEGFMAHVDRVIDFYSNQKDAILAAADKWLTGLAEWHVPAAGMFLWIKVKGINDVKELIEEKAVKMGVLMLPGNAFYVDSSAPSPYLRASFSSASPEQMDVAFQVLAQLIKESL

The target of the assay is human recombinant KAT-II (Homo sapiens (Human), UniProt Q8N5Z0). The experiment in a line: KAT-II inhibitory test. The format is biochemical. The settings on record: 3.0 μmol/L kynurenine, 37° C., 1 hr, pH 8.0; kynurenic acid quantified by HPLC. The essentials:
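E. coli-expressed His/MBP-tagged human KAT-II (2.0 ng/μL) incubated with 3.0 μmol/L kynurenine and 10 μmol/L pyridoxal phosphate in Tris-acetate pH 8.0, 1 hr at 37 °C. Reaction stopped with TCA. Kynurenic acid quantified by reversed-phase HPLC with fluorescence detection (ex 354/em 460 nm), duplicate at each concentration.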
As for `CCc1nc2sc(N3CC(F)(F)C[C@@H]3C(=O)NCc3ccccc3)nn2c(=O)c1F` [Example 650, (R)-N-benzyl-1-(7-ethyl-6-fluoro-5-oxo-5H-[1,3,4]thiadiazolo[3,2-a]pyrimidin-2-yl)-4,4-difluoropyrrolidine-2-carboxamide], the concentration for half-maximal inhibition (IC50) is 2200 nM.

With `CC(C)c1cc(=O)n2nc(N3CCC[C@@H]3C(=O)NCc3ccccn3)sc2n1` [Example 653, (R)-1-[5-oxo-7-(propan-2-yl)-5H-[1,3,4]thiadiazolo[3,2-a]pyrimidin-2-yl]-N-[(pyridin-2-yl)methyl]pyrrolidine-2-carboxamide], the IC50 is 190 nM.

`O=C(NC1(c2ccccc2)CC1)[C@H]1CCCN1c1nn2c(=O)c3ccccc3nc2s1` [Example 655, (R)-1-(5-oxo-5H-[1,3,4]thiadiazolo[2,3-b]quinazolin-2-yl)-N-(1-phenylcyclopropyl)pyrrolidine-2-carboxamide]: the IC50 worked out at 29 nM.

Turning to `Cc1cc2c(=O)n3nc(N4CCC[C@@H]4C(=O)NCc4ccccc4)sc3nc2s1` [Example 656, (R)-N-benzyl-1-(6-methyl-8-oxo-8H-[1,3,4]thiadiazolo[3,2-a]thieno[2,3-d]pyrimidin-2-yl)pyrrolidine-2-carboxamide], the IC50 is 44 nM.

Turning to `CCc1nc2sc(N3CCC[C@@H]3C(=O)NCc3cc(C)ccn3)nn2c(=O)c1F` [Example 664, (R)-1-(7-ethyl-6-fluoro-5-oxo-5H-[1,3,4]thiadiazolo[3,2-a]pyrimidin-2-yl)-N-[(4-methylpyridin-2-yl)methyl]pyrrolidine-2-carboxamide], the IC50 turned out to be 560 nM.

Regarding `CCc1nc2sc(N3CCC[C@@H]3C(=O)NCc3ccccc3Cl)nn2c(=O)c1F` [Example 678, (R)-N-(2-chlorobenzyl)-1-(7-ethyl-6-fluoro-5-oxo-5H-[1,3,4]thiadiazolo[3,2-a]pyrimidin-2-yl)pyrrolidine-2-carboxamide], the concentration for half-maximal inhibition (IC50) turned out to be 19 nM.

For the compound `CCc1nc2sc(N3CCC[C@@H]3C(=O)NCc3ncccn3)nn2c(=O)c1F` [Example 684, (R)-1-(7-ethyl-6-fluoro-5-oxo-5H-[1,3,4]thiadiazolo[3,2-a]pyrimidin-2-yl)-N-[(pyrimidin-2-yl)methyl]pyrrolidine-2-carboxamide], the IC50 was 11000 nM.

Regarding `CCc1nc2sc(N3CCC[C@@H]3C(=O)NCc3cnc(C)cn3)nn2c(=O)c1F` [Example 685, (R)-1-(7-ethyl-6-fluoro-5-oxo-5H-[1,3,4]thiadiazolo[3,2-a]pyrimidin-2-yl)-N-[(5-methylpyrazin-2-yl)methyl]pyrrolidine-2-carboxamide], the IC50 is 2200 nM.

For the compound `CCc1nc2sc(N3CCC[C@@H]3C(=O)NCc3nnc4ccccn34)nn2c(=O)c1F` [Example 686, (R)-1-(7-ethyl-6-fluoro-5-oxo-5H-[1,3,4]thiadiazolo[3,2-a]pyrimidin-2-yl)-N-[([1,2,4]triazolo[4,3-a]pyridin-3-yl)methyl]pyrrolidine-2-carboxamide], the IC50 came to 32000 nM.

With `CCc1nc2sc(N3CCC[C@@H]3C(=O)NCc3ccc(Cl)cc3Cl)nn2c(=O)c1F` [Example 688, (R)-N-(2,4-dichlorobenzyl)-1-(7-ethyl-6-fluoro-5-oxo-5H-[1,3,4]thiadiazolo[3,2-a]pyrimidin-2-yl)pyrrolidine-2-carboxamide], the IC50 was 29 nM.

Regarding `Cc1nc2sc(N3CCC[C@@H]3C(=O)NCc3ccccc3)nn2c(=O)c1C1=CCOCC1` [Example 698, (R)-N-benzyl-1-[6-(3,6-dihydro-2H-pyran-4-yl)-7-methyl-5-oxo-5H-[1,3,4]thiadiazolo[3,2-a]pyrimidin-2-yl]pyrrolidine-2-carboxamide], the IC50 stood at 67 nM.

`CCc1cc(=O)n2nc(N3CCC[C@@H]3C(=O)NCc3ccccc3)sc2c1` [Example 699, (R)-N-benzyl-1-(7-ethyl-5-oxo-5H-[1,3,4]thiadiazolo[3,2-a]pyridin-2-yl)pyrrolidine-2-carboxamide]: the IC50 was determined as 230 nM.

For `CCc1c(Cl)c(=O)n2nc(N3CCC[C@@H]3C(=O)NCc3ccccc3)sc2c1Cl` [Example 701, (R)-N-benzyl-1-(6,8-dichloro-7-ethyl-5-oxo-5H-[1,3,4]thiadiazolo[3,2-a]pyridin-2-yl)pyrrolidine-2-carboxamide], the IC50 was determined as 50 nM.

On to `CCc1nc2ccc(N3CCC[C@@H]3C(=O)NCc3ccccc3)nc2c(=O)n1C` [Example 703, (R)-N-benzyl-1-(2-ethyl-3-methyl-4-oxo-3,4-dihydropyrido[3,2-d]pyrimidin-6-yl)pyrrolidine-2-carboxamide], for which the IC50 came to 110 nM.

With `Cc1nc2ccc(N3CCC[C@@H]3C(=O)NCc3ccccc3)nc2c(=O)n1CC(F)(F)F` [Example 706, (R)-N-benzyl-1-[2-methyl-4-oxo-3-(2,2,2-trifluoroethyl)-3,4-dihydropyrido[3,2-d]pyrimidin-6-yl]pyrrolidine-2-carboxamide], the IC50 was 170 nM.

As to `Cn1c(C(F)(F)F)nc2ccc(N3CCC[C@@H]3C(=O)NCc3ccccc3)nc2c1=O` [Example 707, (R)-N-benzyl-1-(3-methyl-4-oxo-2-trifluoromethyl-3,4-dihydropyrido[3,2-d]pyrimidin-6-yl)pyrrolidine-2-carboxamide], the IC50 came out at 680 nM.

Consider `O=C(NCc1ccccc1)[C@H]1CCCN1c1ccc2nc(C3(Cl)CC3)[nH]c(=O)c2n1` [Example 711, (R)-N-benzyl-1-[2-(1-chlorocyclopropyl)-4-oxo-3,4-dihydropyrido[3,2-d]pyrimidin-6-yl]pyrrolidine-2-carboxamide], for which the IC50 was found to be 190 nM.

`CC(C)c1nc2ccc(N3CCC[C@@H]3C(=O)NCc3ccccc3)nc2c(=O)[nH]1` [Example 712, (R)-N-benzyl-1-[4-oxo-2-(propan-2-yl)-3,4-dihydropyrido[3,2-d]pyrimidin-6-yl]pyrrolidine-2-carboxamide]: the IC50 was 62 nM.

Consider `O=C(NCc1ccccc1)[C@H]1CCCN1c1ccc2nc(-c3ccccc3F)[nH]c(=O)c2n1` [Example 713, (R)-N-benzyl-1-[2-(2-fluorophenyl)-4-oxo-3,4-dihydropyrido[3,2-d]pyrimidin-6-yl]pyrrolidine-2-carboxamide], for which the IC50 was found to be 88 nM.

Take `O=C(NCc1ccccc1)[C@H]1CCCN1c1ccc2nc(-c3ccccc3)cc(=O)n2n1` [Example 714, (R)-N-benzyl-1-(4-oxo-2-phenyl-4H-pyrimido[1,2-b]pyridazin-7-yl)pyrrolidine-2-carboxamide]: the IC50 is 590 nM.

As for `CCCc1cc(=O)n2nc(N3CCC[C@@H]3C(=O)NC3(c4ccccc4)CC3)ccc2n1` [Example 718, (R)-1-(4-oxo-2-propyl-4H-pyrimido[1,2-b]pyridazin-7-yl)-N-(1-phenylcyclopropyl)pyrrolidine-2-carboxamide], the IC50 stood at 310 nM.

For the compound `CC(C)c1cc(=O)n2nc(N3CCC[C@@H]3C(=O)NCc3ccccc3)ccc2n1` [Example 720, (R)-N-benzyl-1-[4-oxo-2-(propan-2-yl)-4H-pyrimido[1,2-b]pyridazin-7-yl]pyrrolidine-2-carboxamide], the IC50 turned out to be 550 nM.

Take `CC(C)c1nc2ccc(N3CCC[C@@H]3C(=O)NCc3ccccc3)nn2c(=O)c1F` [Example 722, (R)-N-benzyl-1-[3-fluoro-4-oxo-2-(propan-2-yl)-4H-pyrimido[1,2-b]pyridazin-7-yl]pyrrolidine-2-carboxamide]: the IC50 stood at 89 nM.

Turning to `O=C(NCc1ccccc1)[C@H]1CCCN1c1nc2c(=O)[nH]c(N3CCCCC3)nc2s1` [Example 728, (R)-N-benzyl-1-[7-oxo-5-(piperidin-1-yl)-6,7-dihydro[1,3]thiazolo[5,4-d]pyrimidin-2-yl]pyrrolidine-2-carboxamide], the IC50 stood at 24 nM.
